Laboratory results as given in US20010039287A1, “AROMATIC SULFONE HYDROXAMIC ACID METALLOPROTEASE INHIBITOR” (priority 1997, published 2001).
pIC50: −log10 of the molar value. Counter-ions that a name gives are not always drawn. Like-named read-outs stand apart in the source and are kept apart here.

Assays:
Test in all cases: biochemical
recombinant human MMP-13 = recombinant human MMP-13 (Homo sapiens, UniProt P45452)
recombinant human MMP-1 = target: T1, recombinant human MMP-1 (Homo sapiens, UniProt P03956); conditions: read-out: MMP-1 IC50
T1 construct: made in house; host or cells: transfected HT-1080 cells (provided by Dr. Harold Welgus, Washington University)
T1 sequence (P03956 100-469): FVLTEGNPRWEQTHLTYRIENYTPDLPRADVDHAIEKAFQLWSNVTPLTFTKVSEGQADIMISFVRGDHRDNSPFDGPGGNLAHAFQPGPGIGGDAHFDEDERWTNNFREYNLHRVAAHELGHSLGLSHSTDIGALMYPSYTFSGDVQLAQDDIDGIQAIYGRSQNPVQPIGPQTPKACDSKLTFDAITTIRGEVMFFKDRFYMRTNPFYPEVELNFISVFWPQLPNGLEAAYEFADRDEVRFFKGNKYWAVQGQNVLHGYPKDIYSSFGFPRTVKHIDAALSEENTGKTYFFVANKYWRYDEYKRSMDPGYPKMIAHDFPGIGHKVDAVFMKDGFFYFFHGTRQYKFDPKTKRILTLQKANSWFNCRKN

recombinant human MMP-2 = target: T2, recombinant human MMP-2 (Homo sapiens, UniProt P08253); conditions: read-out: MMP-2 IC50
T2 sequence (P08253 110-660): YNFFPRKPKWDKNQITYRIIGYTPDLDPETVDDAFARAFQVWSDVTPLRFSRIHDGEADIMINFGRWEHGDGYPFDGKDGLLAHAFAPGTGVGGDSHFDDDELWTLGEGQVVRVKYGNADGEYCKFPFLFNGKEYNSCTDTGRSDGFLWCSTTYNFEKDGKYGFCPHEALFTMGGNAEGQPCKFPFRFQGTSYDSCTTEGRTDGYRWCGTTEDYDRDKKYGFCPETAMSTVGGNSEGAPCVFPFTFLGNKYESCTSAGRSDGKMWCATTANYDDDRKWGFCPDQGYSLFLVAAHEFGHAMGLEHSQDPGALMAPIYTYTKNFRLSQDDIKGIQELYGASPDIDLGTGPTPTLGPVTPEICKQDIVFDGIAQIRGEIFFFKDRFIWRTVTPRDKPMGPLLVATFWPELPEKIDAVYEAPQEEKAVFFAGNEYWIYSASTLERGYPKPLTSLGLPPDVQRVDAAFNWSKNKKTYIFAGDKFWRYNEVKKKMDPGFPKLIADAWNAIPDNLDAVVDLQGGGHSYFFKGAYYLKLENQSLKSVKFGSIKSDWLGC

[1] = Inhibition Table B, read-out: MMP-13 IC50
[2] = Inhibition Table A, read-out: MMP-13 IC50

Compound | pIC50 (recombinant human MMP-13; [1]) | pIC50 (recombinant human MMP-1; Inhibition Table B) | pIC50 (recombinant human MMP-2; Inhibition Table B) | pIC50 (recombinant human MMP-13; [2]) | pIC50 (recombinant human MMP-1; Inhibition Table A) | pIC50 (recombinant human MMP-2; Inhibition Table A) | pIC50 (recombinant human MMP-13)
CC(=O)N1CCC(C(=O)NO)(S(=O)(=O)c2ccc(Oc3ccc4c(c3)OCO4)cc2)CC1 [Example 37, 1-acetyl-4-[[4-(1,3-benzodioxol-5-yloxy)phenyl]sulfonyl]-N-hydroxy-4-piperidinecarboxamide, Monohydrochloride] | 9.52 | 6.00 | 9.70 | – | – | – | –
Cc1ccccc1-c1ccc(S(=O)(=O)C2(C(=O)NO)CCOCC2)cc1 [Example 225] | 7.15 | < 5.00 | 7.27 | – | – | – | –
CC(=O)N1CCN(c2ccc(Oc3ccc(S(=O)(=O)C4(C(=O)NO)CCSCC4)cc3)cc2)CC1 [Example 112] | 8.49 | 6.00 | 8.15 | – | – | – | –
C#CCN1CCC(C(=O)NO)(S(=O)(=O)c2ccc(Oc3cc(OC)cc(OC)c3)cc2)CC1 [Example 39, 4-[[4-(3,5-dimethoxyphenoxy)phenyl]sulfonyl]-N-hydroxy-1-(2-propynyl)-4-piperidinecarboxamide, Monohydrochloride] | 7.61 | < 5.00 | 6.64 | – | – | – | –
Cc1nc2cc(Oc3ccc(S(=O)(=O)C4(C(=O)NO)CCOCC4)cc3)ccc2s1 [Example 121, tetrahydro-N-hydroxy-4-[[4-[(2-methyl-5-benzothiazolyl)-oxy]phenyl]sulfonyl]-2H-pyran-4-carboxamide] | 9.70 | 5.92 | > 10.00 | – | – | – | –
O=C(NO)C1(S(=O)(=O)c2ccc(F)cc2)CCOCC1 [Example 66, 4-[(4-fluorophenyl)-sulfonyl]tetrahydro-N-hydroxy-2H-pyran-4-carboxamide] | 4.44 | < 5.00 | 5.34 | – | – | – | –
O=C(NO)C1(S(=O)(=O)c2ccc(Sc3ccccc3)cc2)CCS(=O)(=O)CC1 [Example 52] | 8.23 | < 5.00 | 8.57 | – | – | – | –
O=C(CN1CCCC1)N1CCC(C(=O)NO)(S(=O)(=O)c2ccc(Oc3ccccc3)cc2)CC1 [Example 31, N-hydroxy-4-[(4-phenoxyphenyl)sulfonyl]-1-(1-pyrrolidinylacetyl)-4-piperidine Carboxamide, Monohydrochloride] | 9.70 | 6.43 | > 10.00 | – | – | – | –
O=C(C1CCCCC1)N1CCN(c2ccc(S(=O)(=O)C3(C(=O)NO)CCOCC3)cc2)CC1 [Example 200] | 7.76 | < 5.00 | 7.62 | – | – | – | –
O=C(NO)C1(S(=O)(=O)c2ccc(Sc3ccccc3)cc2)CCNCC1 [Example 86, 4-[[4-(phenylthio)-phenyl]-sulfonyl]-N-hydroxy-4-piperidine-carboxamide, Monohydrochloride] | 8.46 | < 5.00 | 8.60 | – | – | – | –
O=C(NO)/C(=C\c1ccccc1)S(=O)(=O)c1ccc(Oc2ccccc2)cc1 [Example 5] | – | – | – | 5.32 | < 5.00 | 5.74 | –
O=C(NO)C1(S(=O)(=O)c2ccc(-c3ccccc3)cc2)CCOCC1 [Example 213] | > 9.00 | 6.51 | > 9.00 | – | – | – | –
CC(C)(C)c1ccc(-c2ccc(S(=O)(=O)C3(C(=O)NO)CCOCC3)cc2)cc1 [Example 226] | 8.22 | < 5.00 | 7.73 | – | – | – | –
NCCc1ccc(Oc2ccc(S(=O)(=O)C3(C(=O)NO)CCS(=O)(=O)CC3)cc2)cc1 [Example 54, 4-[[4-[4-(2-aminoethyl))-phenoxy]phenyl]sulfonyl]tetrahydro-N-hydroxy-2H-thiopyran-4-carboxamide 1,1-dioxide Monohydrochloride] | 6.92 | < 5.00 | 7.22 | – | – | – | –
Nc1cc(C(F)(F)F)ccc1Sc1ccc(S(=O)(=O)C2(C(=O)NO)CCOCC2)cc1 [Example 61, 4—[[4-[[2-amino-4-(trifluoromethyl)phenyl]thio]phenyl]-sulfonyl]-tetrahydro-N-hydroxy-2H-pyran-4-carboxamide, Monohydrochloride] | 5.70 | < 5.00 | 5.82 | – | – | – | –
O=C(NO)C1(S(=O)(=O)c2ccc(Sc3ccc(Cl)c(Cl)c3)cc2)CCOCC1 [Example 60] | 6.83 | < 5.00 | 7.19 | – | – | – | –

Compound | pIC50 (recombinant human MMP-13; [1]) | pIC50 (recombinant human MMP-1; Inhibition Table B) | pIC50 (recombinant human MMP-2; Inhibition Table B) | pIC50 (recombinant human MMP-13; [2]) | pIC50 (recombinant human MMP-1; Inhibition Table A) | pIC50 (recombinant human MMP-2; Inhibition Table A) | pIC50 (recombinant human MMP-13)
C#CCN1CCC(C(=O)NO)(S(=O)(=O)c2ccc(Oc3ccc(-n4ccnc4)cc3)cc2)CC1 [Example 23] | – | – | – | 9.70 | 5.64 | > 10.00 | –
O=C(NCC(F)(F)F)C1CCN(c2ccc(S(=O)(=O)C3(C(=O)NO)CCOCC3)cc2)CC1 [Example 180] | 8.40 | 5.30 | 6.89 | – | – | – | –
O=C(NO)C1(S(=O)(=O)c2ccc(Oc3ccc(F)c(Cl)c3)cc2)CCOCC1 [Example 108, 4-[[4-(3-chloro-4-fluorophenoxy)phenyl]sulfonyl]-tetrahydro-N-hydroxy-2H-pyran-4-carboxamide] | 9.40 | 5.70 | 9.40 | – | – | – | –
O=Cc1cccc(-c2ccc(S(=O)(=O)C3(C(=O)NO)CCOCC3)cc2)c1 [Example 228] | > 9.00 | 6.22 | > 9.00 | – | – | – | –
CC(C)NC(=O)N1CCC(C(=O)NO)(S(=O)(=O)c2ccc(Oc3ccc(Cl)cc3)cc2)CC1 [Example 90, 4-[[4-(4-chlorophenoxy)-phenyl]sulfonyl]-N^4-hydroxy-N^1-(1-methylethyl)-1,4-piperidine Dicarboxamide] | 10.00 | 5.92 | 10.00 | – | – | – | –
O=C(NO)C1(S(=O)(=O)c2ccc(-c3cccc4ccccc34)cc2)CCOCC1 [Example 224] | 7.78 | < 5.00 | 7.74 | – | – | – | –
CC1(C)OCC(C(=O)NO)(S(=O)(=O)c2ccc(Oc3ccccc3)cc2)CO1 [Example 48] | 9.60 | 6.68 | 9.70 | – | – | – | –
CN1CCC(C(=O)NO)(S(=O)(=O)c2ccc(Oc3ccccc3)cc2)CC1 [Example 14] | – | – | – | 10.00 | 6.33 | > 10.00 | –
O=C(NO)C1(S(=O)(=O)c2ccc(Oc3ccccc3)cc2)CCN(CC2CC2)CC1 [Example 29] | – | – | – | – | < 5.00 | 9.82 | 9.52
O=Cc1ccc(-c2ccc(S(=O)(=O)C3(C(=O)NO)CCOCC3)cc2)cc1 [Example 231] | > 9.00 | 6.19 | > 9.00 | – | – | – | –
C=CCN1CCC(C(=O)NO)(S(=O)(=O)c2ccc(Oc3ccc(Cl)c(C)c3)cc2)CC1 [Example 82, 4-[[4-(4-chloro-3-methylphenoxy)phenyljsulfonyl]-N-hydroxy-1-(2-propenyl)-4-piperidinecarboxamide, Monohydrochloride] | 9.52 | 5.40 | 10.00 | – | – | – | –
COc1ccc(Oc2ccc(S(=O)(=O)C3(C(=O)NO)CCOCC3)cc2)cc1 [Example 64] | 9.82 | 5.83 | > 10.00 | – | – | – | –
COc1ccccc1N1CCN(c2ccc(S(=O)(=O)C3(C(=O)NO)CCOCC3)cc2)CC1 [Example 128] | 7.70 | < 5.00 | 7.62 | – | – | – | –
C#CCN1CCC(Oc2ccc(S(=O)(=O)C3(C(=O)NO)CCOCC3)cc2)CC1 [Example 106, Tetrahydro-N-hydroxy-4-[[4-[[1-(2-propynyl)-4-piperidinyl]-oxy]phenyl]sulfonyl]-2H-pyran-4-carboxamide, Monohydrochloride] | 7.92 | < 5.00 | 7.57 | – | – | – | –
O=C(NO)C1(S(=O)(=O)c2ccc(SC3CCCCC3)cc2)CCNCC1 [Example 19] | – | – | – | 8.05 | < 5.00 | 7.86 | –
